Literature values in patent publication US20250205146A1, “GRAPHENE-BASED DRUG DELIVERY DEVICE FOR MUCOSAL AND TRANSMUCOSAL ADMINISTRATION” (SISSA - SCUOLA INTERNAZIONALE SUPERIORE DI STUDI AVANZATI, priority 2022, published 2025).

Settings: cyclic voltammetry, depending on the electrochemical system used

Cn1c(=O)c2c(ncn2C)n(C)c1=O [caffeine]
irreversible oxidation peak potential: over 1.4 V
